# Reference: patent US20080167314A1, “Condensed Imidazole Compound And Use Thereof” (priority 2004, published 2008)
# Test system: TNF-α production in THP-1 cells
# Experiment: Measurement of TNF-α production inhibitory activity in LPS-stimulated THP-1 cells (ELISA)
# Format: cell-based
# Conditions: Homo sapiens, LPS 5 μg/mL, 4 hours, TNF-α in supernatant by ELISA
# Description: Measurement of TNF-α Production Inhibitory Activity
# After THP-1 cells which had been cultured in PRMI 1640 medium (manufactured by Life Technologies, Inc.) containing 1% non-activated bovine fetal serum (manufactured by Life Technologies, Inc., U.S.A.) and 10 mM HEPES (pH 7.5) was plated on a 96-well plate to 1×10^5 cells/well, 1 μL test compound dissolved in DMSO was added to there. After incubation at 37° C. for 1 hour in a CO2 incubator, LPS (Wako Pure Chemicals) was added to the final concentration 5 μg/mL. After cultured at 37° C. for 4 hours in a CO2 incubator, the supernatant was obtained by centrifugation. The concentration of TNF-α in the supernatant was measured with ELISA (R&D System, Quantikine Kit). The concentration (IC50 value) necessary for inhibiting TNF-α production by 50% was calculated by PRIMS 2.01 (Graphpad Software).
row,IC50,Structure (SMILES)
1,0.01 µM,"Cc1cc(-c2nc3cccnn3c2-c2ccnc(NC(=O)c3ccncc3)c2)ccc1F [Example 42-23, N-{4-[2-(4-fluoro-3-methylphenyl)imidazo[1,2-b]pyridazin-3-yl]pyridin-2-yl}isonicotinamide]"
2,0.0015 µM,"Cc1ccc(C(=O)Nc2cc(-c3c(-c4ccc(F)c(C)c4)nc4cccnn34)ccn2)cn1 [Example 42-27, N-{4-[2-(4-fluoro-3-methylphenyl)imidazo[1,2-b]pyridazin-3-yl]pyridin-2-yl}-6-methylnicotinamide]"

# Continued, compound first:
row,Structure (SMILES),IC50
1,"Cc1cc(C(=O)Nc2cc(-c3c(-c4ccc(F)c(C)c4)nc4cccnn34)ccn2)ccn1 [Example 58, N-{4-[2-(4-Fluoro-3-methylphenyl)imidazo[1,2-b]pyridazin-3-yl]pyridin-2-yl}-2-methylisonicotinamide]",0.0022 µM
2,"Cc1cccc(-c2nc3cccnn3c2-c2ccnc(NC(=O)c3ccccc3)c2)c1 [Example 19, N-{4-[2-(3-Methylphenyl)imidazo[1,2-b]pyridazin-3-yl]pyridin-2-yl}benzamide]",0.018 µM
3,"Cc1cc(-c2nc3cccnn3c2-c2ccnc(NC(=O)c3cccnc3)c2)ccc1F [Example 59, N-{4-[2-(4-Fluoro-3-methylphenyl)imidazo[1,2-b]pyridazin-3-yl]pyridin-2-yl}nicotinamide]",0.0029 µM

# Test system: MMP-13 production in human normal articular chondrocytes
# Experiment: Measurement of MMP-13 production inhibitory activity in rhIL-1β-stimulated human normal articular chondrocytes (ELISA)
# Format: cell-based
# Conditions: Chondrocyte, rhIL-1β 0.1 ng/mL, 24 hr, MMP-13 in culture supernatant by ELISA
# Description: Measurement of MMP-13 Production Inhibitory Activity
# Human normal articular chondrocytes (Camblex) were grown in a chondrocyte growth medium (CGM: Camblex), and the cells were suspended in a chondrocyte differentiation medium (CDM: Camblex) and plated on a 96 well plate at 2×10^4 cells/well (150 μL/well). After culturing for 3 days under 37° C., 5% CO2 conditions, the culture medium was exchanged to 0.1% BSA added α-modification of Eagle's (α-MEM: Gibco), and the cells were cultured for 4 hr. The compound was added thereto and, after culture for 1 hr, recombinant human IL-1β (rhIL-1β: R&D systems) was added at 0.1 ng/mL. After culture for 24 hr, the culture supernatant was recovered, and the concentration of MMP-13 in the culture supernatant was measured by the ELISA method (Amersham).
row,Structure (SMILES),IC50
1,"Cc1cc(-c2nc3cccnn3c2-c2ccnc(NC(=O)c3ccncc3)c2)ccc1F [Example 42-23, N-{4-[2-(4-fluoro-3-methylphenyl)imidazo[1,2-b]pyridazin-3-yl]pyridin-2-yl}isonicotinamide]",0.014 µM
2,"Cc1ccc(C(=O)Nc2cc(-c3c(-c4ccc(F)c(C)c4)nc4cccnn34)ccn2)cn1 [Example 42-27, N-{4-[2-(4-fluoro-3-methylphenyl)imidazo[1,2-b]pyridazin-3-yl]pyridin-2-yl}-6-methylnicotinamide]",0.016 µM
3,"Cc1cc(C(=O)Nc2cc(-c3c(-c4ccc(F)c(C)c4)nc4cccnn34)ccn2)ccn1 [Example 58, N-{4-[2-(4-Fluoro-3-methylphenyl)imidazo[1,2-b]pyridazin-3-yl]pyridin-2-yl}-2-methylisonicotinamide]",0.041 µM
4,"Cc1cccc(-c2nc3cccnn3c2-c2ccnc(NC(=O)c3ccccc3)c2)c1 [Example 19, N-{4-[2-(3-Methylphenyl)imidazo[1,2-b]pyridazin-3-yl]pyridin-2-yl}benzamide]",0.073 µM
5,"Cc1cc(-c2nc3cccnn3c2-c2ccnc(NC(=O)c3cccnc3)c2)ccc1F [Example 59, N-{4-[2-(4-Fluoro-3-methylphenyl)imidazo[1,2-b]pyridazin-3-yl]pyridin-2-yl}nicotinamide]",0.02 µM

# Test system: not given
# Experiment: not given
# Conditions: not given
row,melting point,Structure (SMILES)
1,217 to 218 °C,"COc1cc(C(=O)Nc2cc(-c3c(-c4ccc(F)c(C)c4)nc4cccnn34)ccn2)ccc1F [Example 42-11, 4-fluoro-N-{4-[2-(4-fluoro-3-methylphenyl)imidazo[1,2-b]pyridazin-3-yl]pyridin-2-yl}-3-methoxybenzamide]"
2,224 to 225 °C,"Cc1cc(-c2nc3cccnn3c2-c2ccnc(NC(=O)c3ccc(C(F)(F)F)cc3)c2)ccc1F [Example 42-13, N-{4-[2-(4-fluoro-3-methylphenyl)imidazo[1,2-b]pyridazin-3-yl]pyridin-2-yl}-4-(trifluoromethyl)benzamide]"
3,229 to 230 °C,"Cc1cc(-c2nc3cccnn3c2-c2ccnc(NC(=O)NCC(F)(F)F)c2)ccc1F [Example 51-2, N-{4-[2-(4-fluoro-3-methylphenyl)imidazo[1,2-b]pyridazin-3-yl]pyridin-2-yl}-N′-(2,2,2-trifluoroethyl)urea]"
4,240 to 241 °C,"CCNC(=O)Nc1cc(-c2c(-c3ccc(F)c(C)c3)nc3c(C)ccnn23)ccn1 [Example 48-3, N-{4-[2-(4-fluoro-3-methylphenyl)-8-methylimidazo[1,2-b]pyridazin-3-yl]-2-pyridyl}-N′-ethylurea]"
5,243 to 244 °C,"Cc1cc(-c2nc3c(C)ccnn3c2-c2ccnc(NC(=O)c3ccc(F)cc3)c2)ccc1F [Example 41-4, N-{4-[2-(4-fluoro-3-methylphenyl)-8-methylimidazo[1,2-b]pyridazin-3-yl]-2-pyridyl}-4-fluorobenzamide]"
6,229 to 230 °C,"Cc1cc(-c2nc3cccnn3c2-c2ccnc(NC(=O)c3cnccn3)c2)ccc1F [Example 42-34, N-{4-[2-(4-fluoro-3-methylphenyl)imidazo[1,2-b]pyridazin-3-yl]pyridin-2-yl}pyrazine-2-carboxamide]"

# Second part, the compound before the results:
row,Structure (SMILES),melting point
1,"Nc1cc(-c2c(-c3cccc(Cl)c3)nc3ccc(Cl)nn23)ccn1 [Example Compound 13-1, 4-[6-chloro-2-(3-chlorophenyl)imidazo[1,2-b]pyridazin-3-yl]pyridin-2-amine]",268 to 269 °C
2,"CCC(=O)Nc1cc(-c2c(-c3ccc(Cl)cc3)nc3cccnn23)ccn1 [Example Compound 21-28, N-{4-[2-(4-chlorophenyl)imidazo[1,2-b]pyridazin-3-yl]pyridin-2-yl}propanamide]",204 to 205 °C
3,"Cc1cccc(-c2nc3cccnn3c2-c2ccnc(NC(=O)c3cccc(F)c3)c2)c1 [Example Compound 20-4, 3-fluoro-N-{4-[2-(3-methylphenyl)imidazo[1,2-b]pyridazin-3-yl]pyridin-2-yl}benzamide]",204 to 205 °C
4,"Cc1cc(-c2nc3cc(C(C)(C)C)cnn3c2-c2ccnc(N)c2)ccc1F [Example Compound 37-3, 4-[7-tert-butyl-2-(4-fluoro-3-methylphenyl)imidazo[1,2-b]pyridazin-3-yl]-2-pyridylamine]",212 to 213 °C
5,"CCC(=O)N(C(=O)CC)c1cc(-c2c(-c3cccc(C)c3)nc3cccnn23)ccn1 [Example 22, N-{4-[2-(3-Methylphenyl)imidazo[1,2-b]pyridazin-3-yl]pyridin-2-yl}-N-propionylpropanamide]",210 to 211 °C
6,"O=C(Nc1cc(-c2c(-c3ccc(F)cc3)nc3cccnn23)ccn1)c1ccc(Cl)nc1 [Example 40-2, 6-chloro-N-{4-[2-(4-fluorophenyl)imidazo[1,2-b]pyridazin-3-yl]pyridin-2-yl}nicotinamide]",247 to 248 °C
7,COc1ccc(C(=O)Nc2cc(-c3c(-c4cccc(Cl)c4)nc4cccnn34)ccn2)cc1.Cl,236 to 238 °C
8,"Cc1cccc(-c2nc3cccnn3c2-c2ccnc(N(C(=O)C3CC3)C(=O)C3CC3)c2)c1 [Example Compound 23-1, N-(cyclopropylcarbonyl)-N-{4-[2-(3-methylphenyl)imidazo[1,2-b]pyridazin-3-yl]pyridin-2-yl}cyclopropanecarboxamide]",173 to 175 °C
9,"Cc1cc(-c2nc3cc(C(C)(C)C)c(Cl)nn3c2-c2ccnc(N)c2)ccc1F [Example Compound 36-2, 4-[7-tert-butyl-6-chloro-2-(4-fluoro-3-methylphenyl)imidazo[1,2-b]pyridazin-3-yl]-2-pyridylamine]",232 to 233 °C
10,"Cc1cccc(-c2nc3cccnn3c2-c2ccnc(N[C@@H](C)c3ccccc3)c2)c1 [Example Compound 6-21, 4-[2-(3-methylphenyl)imidazo[1,2-b]pyridazin-3-yl]-N-[(1S)-1-phenylethyl]pyridin-2-amine]",154 to 155 °C
11,Cc1cc(-c2nc3cccnn3c2-c2ccnc(NC(=O)c3ccc(Cl)cc3)c2)ccc1F.Cl,264 to 266 °C
12,"Cc1cc(-c2nc3cccnn3c2-c2ccnc(N3CCCNC3=O)c2)ccc1F [Example 55, 1-{4-[2-(4-Fluoro-3-methylphenyl)imidazo[1,2-b]pyridazin-3-yl]pyridin-2-yl}tetrahydropyrimidine-2-(1H)-one]",213 to 215 °C
13,"Cc1cccc(Nc2cc(-c3c(-c4cccc(C)c4)nc4cccnn34)ccn2)c1 [Example Compound 6-9, N-(3-methylphenyl)-4-[2-(3-methylphenyl)imidazo[1,2-b]pyridazin-3-yl]pyridin-2-amine]",195 to 196 °C
14,"Cc1cccc(-c2nc3cccnn3c2-c2ccnc(NCCO)c2)c1 [Example Compound 6-5, 2-({4-[2-(3-methylphenyl)imidazo[1,2-b]pyridazin-3-yl]pyridin-2-yl}amino)ethanol]",176 to 177 °C
15,Cc1cc(-c2nc3cccnn3c2-c2ccnc(NC(=O)N3CCOCC3)c2)ccc1F.Cl,164 to 166 °C
16,"Cc1ccc(Nc2cc(-c3c(-c4cccc(C)c4)nc4cccnn34)ccn2)cc1 [Example Compound 6-8, N-(4-methylphenyl)-4-[2-(3-methylphenyl)imidazo[1,2-b]pyridazin-3-yl]pyridin-2-amine]",213 to 214 °C
